{"source": "patent US10898502B2", "about": "“Treatment of diseases using a combination of ultraviolet blood irradiation and antibiotics” (priority 2014, dated 2021)", "key": {"[1]": {"tested_on": "MAP", "conditions": "cited from earlier work"}, "[2]": {"conditions": "human, in vivo"}, "[3]": {"tested_on": "cathelicidin", "conditions": "cited from earlier work"}, "[4]": {"tested_on": "M. tuberculosis", "conditions": "cited from earlier work"}, "[5]": {"assay": "Adverse reactions seen in the treated patients", "conditions": "Example 2 patient; medication discontinued"}}}
{"compound": "Vitamin A", "values": [{"measurement": "Growth of MAP in vitro", "setting": "[1]", "value": "inhibit the growth of MAP"}]}
{"compound": "Cn1cnc([N+](=O)[O-])c1Sc1ncnc2nc[nH]c12", "note": "[azathioprine]", "values": [{"measurement": "Liver enzymes leading to discontinuation", "setting": "[2]", "value": "elevated ALT and AST"}]}
{"compound": "Vitamin D", "values": [{"measurement": "Growth of MAP in vitro", "setting": "[1]", "value": "inhibit the growth of MAP"}, {"measurement": "Intracellular production of cathelicidin", "setting": "[3]", "value": "induces"}, {"measurement": "Proliferation of M. tuberculosis in macrophages", "setting": "[4]", "value": "reduce the proliferation"}]}
{"compound": "NCC1(CC(=O)O)CCCCC1", "note": "[Gabapentin]", "values": [{"measurement": "Tolerability at the lowest recommended dose", "setting": "[5]", "value": "very dizzy"}]}
